Laboratory results from US9486506B2 (Novo Nordisk A/S, priority 2011, dated 2016).
Numbered stars: 1 amine (or outer) side, 2 acyl side, 3 side chain; on linkers, the order of the positions; unused ones are H or OH. Side chains are listed from the residue outwards. Peptide text beside a SMILES is read from it. * marks the point of attachment. C18 diacid = O=C(O)CCCCCCCCCCCCCCCCC(=O)*; γGlu = O=C(O)[C@H](CCC(=O)[*:2])N[*:1]; AEEA = NCCOCCOCC(=O)O

Key:
glucagon receptor = biological target: T1, glucagon receptor (Homo sapiens, UniProt P47871); assay: Assay (I) Glucagon activity (cAMP biosensor, FLIPR); assay type: cell-based
T1 construct: expressed in transfected cells

[1] = Assay (X) Chemical stability assessment by RP-UPLC; assay type: physicochemical; conditions: pH 8.15, 14 days at 37° C. vs 5° C., 333 μM

T1 sequence (P47871 26-477): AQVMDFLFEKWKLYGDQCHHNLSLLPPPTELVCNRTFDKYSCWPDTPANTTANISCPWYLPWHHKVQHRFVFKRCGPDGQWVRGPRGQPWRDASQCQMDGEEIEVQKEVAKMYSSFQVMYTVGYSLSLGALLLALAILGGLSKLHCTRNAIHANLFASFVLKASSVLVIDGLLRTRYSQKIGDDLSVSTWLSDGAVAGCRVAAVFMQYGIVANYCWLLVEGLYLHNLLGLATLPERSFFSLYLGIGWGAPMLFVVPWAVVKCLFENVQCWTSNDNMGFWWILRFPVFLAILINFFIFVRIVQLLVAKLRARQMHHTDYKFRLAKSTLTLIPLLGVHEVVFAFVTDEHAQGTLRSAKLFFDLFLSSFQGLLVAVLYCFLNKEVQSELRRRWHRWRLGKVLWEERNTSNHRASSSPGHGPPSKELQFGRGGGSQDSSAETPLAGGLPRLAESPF

SMILES | EC50 (glucagon receptor) [nM] | Chemical stability [Purity loss/14 days 37 C.] [1] [%]
CC(C)C[C@H](NC(=O)[C@H](Cc1ccc(O)cc1)NC(=O)[C@H](CCCCN)NC(=O)[C@H](CO)NC(=O)[C@H](Cc1ccc(O)cc1)NC(=O)[C@H](CC(=O)O)NC(=O)[C@H](CO)NC(=O)[C@@H](NC(=O)[C@H](Cc1ccccc1)NC(=O)[C@@H](NC(=O)CNC(=O)[C@H](CCC(N)=O)NC(=O)[C@H](CO)NC(=O)[C@@H](N)Cc1c[nH]cn1)[C@@H](C)O)[C@@H](C)O)C(=O)N[C@@H](CC(=O)O)C(=O)N[C@@H](C)C(=O)N[C@@H](CCCNC(=N)N)C(=O)N[C@@H](CCCNC(=N)N)C(=O)N[C@@H](C)C(=O)N[C@@H](CCC(N)=O)C(=O)N[C@@H](CC(=O)O)C(=O)N[C@@H](Cc1ccccc1)C(=O)N[C@H](C(=O)N[C@@H](CCCCNC(=O)CC[C@H](NC(=O)CC[C@H](NC(=O)COCCOCCNC(=O)COCCOCCNC(=O)CC[C@H](NC(=O)CCCCCCCCCCCCCCC(=O)O)C(=O)O)C(=O)O)C(=O)O)C(=O)N[C@@H](Cc1c[nH]c2ccccc12)C(=O)N[C@@H](CC(C)C)C(=O)N[C@@H](CC(C)C)C(=O)N[C@@H](CO)C(=O)N[C@H](C(=O)O)[C@@H](C)O)C(C)C [Example 83, N^ε24-[(4S)-4-carboxy-4-[[(4S)-4-carboxy-4-[[2-[2-[2-[[2-[2-[2-[[(4S)-4-carboxy-4-(15-carboxypentadecanoylamino)butanoyl]amino]ethoxy]ethoxy]acetyl]amino]ethoxy]ethoxy]acetyl]amino]butanoyl]amino]butanoyl]-[Ala16,Lys24,Leu27,Ser28]-Glucagon] | 0.016 | 10.3
CC(C)C[C@H](NC(=O)[C@H](Cc1c[nH]c2ccccc12)NC(=O)[C@H](CCCCNC(=O)CC[C@H](NC(=O)CC[C@H](NC(=O)COCCOCCNC(=O)COCCOCCNC(=O)CC[C@H](NC(=O)CCCCCCCCCCCCCCCCC(=O)O)C(=O)O)C(=O)O)C(=O)O)NC(=O)[C@@H](NC(=O)[C@H](Cc1ccccc1)NC(=O)[C@H](CC(=O)O)NC(=O)[C@H](CCC(N)=O)NC(=O)[C@H](C)NC(=O)[C@H](CCCNC(=N)N)NC(=O)[C@H](CCCNC(=N)N)NC(=O)[C@@H](NC(=O)[C@H](CC(=O)O)NC(=O)[C@H](CC(C)C)NC(=O)[C@H](Cc1ccc(O)cc1)NC(=O)[C@H](CCCNC(=N)N)NC(=O)[C@H](CO)NC(=O)[C@H](Cc1ccc(O)cc1)NC(=O)[C@H](CC(=O)O)NC(=O)[C@H](CO)NC(=O)[C@@H](NC(=O)[C@H](Cc1ccccc1)NC(=O)[C@@H](NC(=O)CNC(=O)[C@H](CCC(N)=O)NC(=O)[C@H](CO)NC(=O)[C@@H](N)Cc1c[nH]cn1)[C@@H](C)O)[C@@H](C)O)[C@@H](C)O)C(C)C)C(=O)N[C@@H](CC(C)C)C(=O)N[C@@H](CO)C(=O)N[C@H](C(=O)O)[C@@H](C)O [Example 22, N^ε24-[(4S)-4-carboxy-4-[[(4S)-4-carboxy-4-[[2-[2-[2-[[2-[2-[2-[[(4S)-4-carboxy-4-(17-carboxyheptadecanoylamino)butanoyl]amino]ethoxy]ethoxy]acetyl]amino]ethoxy]ethoxy]acetyl]amino]butanoyl]amino]butanoyl]-[Arg^12,Thr^16,Lys^24,Leu^27,Ser^28]-Glucagon] (H-HSQGTFTSDYSRYLDTRRAQDFVK([γGlu-γGlu-AEEA-AEEA-γGlu-C18 diacid])WLLST-OH) | 0.297 | 8.8
